# Test results published in patent US7384911B2, “Peptides having antimicrobial properties and compositions containing them, notably for the preservation of foodstuffs” (priority 2002, dated 2008).
# Read-outs that look alike come from different tables or passages of the source. Residues, ends and D or L forms follow the SMILES beside them.
# Experiments:
# E. coli 1106 [1] = format: cell-based, Escherichia coli; conditions: interval [a]-[b], tested spheniscin-2 0.2-100 μM, MSI-94 0.2-10 μM
# Procedure: (§1) The bacteria to be tested were suspended in a suitable nutritive medium of the “poor broth” type corresponding to a solution of bactotryptone at 10 g/l with the addition of NaCl 5 g/l in ultrapure water.
# (§2) Antimicrobial activities were detected by a growth inhibition test in microtitration plates (Hétru and Bulet, 1997). One deposited […] of each fraction collected in mictrotitration plates in the presence of 90 μl of culture medium containing the microorganisms (at a final concentration equivalent to 1 mDO at 600 nm).
# (§3) For the bacteria and the yeast, incubation was performed at 30° C. for 12-24 h under agitation. The growth of the microorganisms was measured by monitoring the absorbance at 600 nm by means of a spectrophotometer reader of microtitration plates.
# (§4) The antimicrobial activities expressed in minimal inhibitory concentration (MIC) of spheniscin 2 (concentrations comprised between 0.2 μM and 100 μM) were determined against bacteria, yeasts and fungi using a growth inhibition test in liquid medium in microtitration plates (for the detailed protocol see example 2.4 as well as Hétru and Bulet, 1997). […]
# C. albicans IHEM 8060 = format: cell-based, Candida albicans; conditions: interval [a]-[b], tested spheniscin-2 0.2-100 μM, MSI-94 0.2-10 μM
# Procedure: (§5) The yeast strain C. albicans to be tested was incubated in a suitable culture medium of the “Sabouraud” type.
# as §2, §3
# (§6) The antimicrobial activities expressed in minimal inhibitory concentration (MIC) of spheniscin 2 (concentrations comprised between 0.2 μM and 100 μM) were determined against bacteria, yeasts and fungi using a growth inhibition test in liquid medium in microtitration plates (for the detailed protocol see example 2.4 as well as Hétru and Bulet, 1997).
# (§7) The minimal growth inhibitory concentration (MIC) corresponds to the interval [a]-[b] in which [a] is the strongest concentration tested for which the microorganism grows and [b] is the weakest concentration tested starting at which there is 100% inhibition of growth of the microorganism (Casteels and Tempst, 1994). […]
# Pseudomonas aeruginosa = format: cell-based
# Procedure: (§8) Strains of microorganisms capable of growing at such pH values were selected in advance: these were Pseudomonas aeruginosa and Escherichia coli 1106 (Gram-negative bacteria). The tests of antimicrobial activity were performed in liquid medium in microtitration plates (for the detailed protocol see example 2.4 as well as Hétru and Bulet, 1997). The pH of the liquid medium used was adjusted with hydrochloric acid for each test.
# (§9) Two strains of Gram-negative bacteria (Pseudomonas aeruginosa and Escherichia coli 1106) capable of growing in the range of pH values to be tested were selected. The range of pH values tested corresponded to the pH variations observed in the well preserved stomach content of the incubating king penguin (Thouzeau et al., 2003).
# Escherichia coli 1106 = format: cell-based
# Procedure: as §8, §9
# Aspergillus fumigatus = assay: Effect on growth of Aspergillus fumigatus, observation with electronic microscope; format: cell-based; conditions: incubation with 6 μM of spheniscin-2
# From the text: (FIG. 9A) Control growth: the aspergillar heads terminated by the spores are clearly visible (X 400). […] The effect of spheniscin-2 on A. fumigatus is consequently not of the direct fungicidal type on the spores but is manifested by a halt of growth by inhibition of the reproduction of the fungus because there is no longer formation of aspergillar heads, structures implicated in the reproduction/proliferation process of this fungus.
# B. cereus ATCC 11778 [2] = format: cell-based, Bacillus cereus; conditions: interval [a]-[b], tested spheniscin-2 0.2-100 μM, MSI-94 0.2-10 μM
# Procedure: as §1, §2, §3, §4
# B. cereus ATCC 11778 [3] = assay: Bactericidal or bacteriostatic effect, spreading on Petri dishes and counting colonies; format: cell-based, Bacillus cereus; conditions: colonies counted after 24 h of incubation, Yes/No
# Procedure: (§10) The bactericidal or bacteriostatic effect of the peptide was determined by spreading on Petri dishes and counting the colonies present after 24 h of incubation.
# E. coli 1106 [4] = assay: as above; format: cell-based, Escherichia coli; conditions: colonies counted after 24 h of incubation, Yes/No
# Procedure: as §10
# S. saprophyticus = format: cell-based, Staphylococcus saprophyticus; conditions: interval [a]-[b], tested spheniscin-2 0.2-100 μM, MSI-94 0.2-10 μM
# Procedure: as §1, §2, §3, §4
# [5] = tested on: Vibrio metshnikovii NCTC 8483; assay: MIC, growth inhibition test in liquid medium in microtitration plates; format: cell-based; conditions: interval [a]-[b], tested spheniscin-2 0.2-100 μM
# Procedure: as §1, §2, §3, §4
# [6] = tested on: V. anguillarum ATCC 19264; assay: as above; format: cell-based; conditions: interval [a]-[b], tested spheniscin-2 0.2-100 μM
# Procedure: as §1, §2, §3, §4
# Candida glabrata = format: cell-based; conditions: tested spheniscin-2 0.2-100 μM, MSI-94 0.2-10 μM, ND = activity not detected in range tested
# Procedure: as §5, §2, §3, §6, §7
# C. tropicalis = format: cell-based; conditions: interval [a]-[b], tested spheniscin-2 0.2-100 μM, MSI-94 0.2-10 μM
# Procedure: as §5, §2, §3, §6, §7
# Staphylococcus aureus = format: cell-based; conditions: interval [a]-[b], tested spheniscin-2 0.2-100 μM, MSI-94 0.2-10 μM
# Procedure: as §1, §2, §3, §6
# (§11) The minimal growth inhibitory concentration (MIC) corresponds to the interval [a]-[b] in which [a] is the strongest concentration tested for which the microorganism grows and [b] is the weakest concentration tested starting at which there is 100% inhibition of growth of the microorganism (Casteels and Tempst, 1994). The control peptides were MSI-94 (a peptide of the mangainin family stemming from the skin of the batrachian Xenopus laevis and presenting a broad spectrum of antimicrobial activity; Maloy and Kari, 1995) for testing against the bacteria and yeasts; and thanatin (an antifungal peptide stemming from the insect Podisus maculiventris; Fehlbaum et al., 1996) for testing against the filamentous fungi.
# Micrococcus luteus = format: cell-based; conditions: interval [a]-[b], tested spheniscin-2 0.2-100 μM, MSI-94 0.2-10 μM
# Procedure: as §1, §2, §3, §6, §11
# Aerococcus viridans = format: cell-based; conditions: interval [a]-[b], tested spheniscin-2 0.2-100 μM, MSI-94 0.2-10 μM
# Procedure: as §1, §2, §3, §6, §11
# Nocardia asteroides = format: cell-based; conditions: interval [a]-[b], tested spheniscin-2 0.2-100 μM, MSI-94 0.2-10 μM
# Procedure: as §1, §2, §3, §6, §11
# Bacillus subtilis = format: cell-based; conditions: interval [a]-[b], tested spheniscin-2 0.2-100 μM, MSI-94 0.2-10 μM
# Procedure: as §1, §2, §3, §6, §11
compound,measurement,setting,value
"CC[C@H](C)[C@@H]1NC(=O)[C@@H]2CCCN2C(=O)[C@H]([C@@H](C)CC)NC(=O)[C@H](CO)NC(=O)[C@@H]2CCCN2C(=O)[C@H](Cc2ccccc2)NC(=O)[C@H](CCCNC(=N)N)NC(=O)[C@@H]2CSSC[C@@H](C(=O)N[C@@H](CCCNC(=N)N)C(=O)N[C@@H](CCCNC(=N)N)C(=O)N[C@H](C(=O)N[C@@H](Cc3c[nH]c4ccccc34)C(=O)O)C(C)C)NC(=O)[C@@H]3CSSC[C@H](NC(=O)[C@H](CC(C)C)NC(=O)CNC(=O)[C@H](Cc4ccccc4)NC(=O)[C@@H](N)CO)C(=O)N[C@@H](CCCNC(=N)N)C(=O)N[C@@H](CC(C)C)C(=O)N[C@@H](CCCNC(=N)N)C(=O)N[C@@H](CCCNC(=N)N)C(=O)NCC(=O)N[C@@H](Cc4ccccc4)C(=O)N[C@@H](CSSC[C@H](NC(=O)[C@H](CCCNC(=N)N)NC(=O)CNC1=O)C(=O)N[C@@H](CO)C(=O)N[C@@H](CCCNC(=N)N)C(=O)N[C@@H](Cc1ccccc1)C(=O)N[C@@H](C(C)C)C(=O)N[C@@H](CCC(N)=O)C(=O)N3)C(=O)N[C@@H](C)C(=O)N[C@@H](CCCNC(=N)N)C(=O)NCC(=O)N[C@@H](CCCNC(=N)N)C(=O)N2 [spheniscin-2] (HELM PEPTIDE1{S.F.G.L.C.R.L.R.R.G.F.C.A.R.G.R.C.R.F.P.S.I.P.I.G.R.C.S.R.F.V.Q.C.C.R.R.V.W}$PEPTIDE1,PEPTIDE1,5:R3-33:R3|PEPTIDE1,PEPTIDE1,12:R3-27:R3|PEPTIDE1,PEPTIDE1,17:R3-34:R3$$$V2.0; N-terminus and C-terminus assumed)",MIC,E. coli 1106 [1],1.5 to 3 µM
same,MIC,C. albicans IHEM 8060,50 to 100 µM
same,MIC (μM) after 48 h of incubation,Pseudomonas aeruginosa; pH 4.2,>100 µM
same,MIC (μM) after 48 h of incubation,Pseudomonas aeruginosa; pH 7.2,6 to 12 µM
same,MIC (μM) after 48 h of incubation,Escherichia coli 1106; pH 4.2,6 to 12 µM
same,MIC (μM) after 48 h of incubation,Escherichia coli 1106; pH 5.2,25 to 50 µM
same,MIC (μM) after 48 h of incubation,Escherichia coli 1106; pH 6.1,6 to 12 µM
same,MIC (μM) after 48 h of incubation,Escherichia coli 1106; pH 7.2,1.5 to 3 µM
same,Effect on the growth of Aspergillus fumigatus (FIG. 9B),Aspergillus fumigatus,disappearance of the aspergillar heads
same,MIC,B. cereus ATCC 11778 [2],3 to 6 µM
same,Bactericidal effect of spheniscin-2,B. cereus ATCC 11778 [3],Yes
same,Bactericidal effect of spheniscin-2,E. coli 1106 [4],Yes
same,MIC,S. saprophyticus,1.5 to 3 µM
same,MIC,[5],25 to 50 µM
same,MIC,[6],25 to 50 µM
same,MIC,Candida glabrata,>100 µM
same,MIC,C. tropicalis,1.5 to 3 µM
same,MIC,Staphylococcus aureus,1.5 to 3 µM
same,MIC,Micrococcus luteus,1.5 to 3 µM
same,MIC,Aerococcus viridans,0.4 to 0.8 µM
same,MIC,Nocardia asteroides,0.8 to 1.5 µM
same,MIC,Bacillus subtilis,0.8 to 1.5 µM
